This experiment deals with T1, reconstituted ATase (ATN6-ATC3 complex) (Escherichia coli, UniProt P30870).
T1 sequence (P30870 1-608): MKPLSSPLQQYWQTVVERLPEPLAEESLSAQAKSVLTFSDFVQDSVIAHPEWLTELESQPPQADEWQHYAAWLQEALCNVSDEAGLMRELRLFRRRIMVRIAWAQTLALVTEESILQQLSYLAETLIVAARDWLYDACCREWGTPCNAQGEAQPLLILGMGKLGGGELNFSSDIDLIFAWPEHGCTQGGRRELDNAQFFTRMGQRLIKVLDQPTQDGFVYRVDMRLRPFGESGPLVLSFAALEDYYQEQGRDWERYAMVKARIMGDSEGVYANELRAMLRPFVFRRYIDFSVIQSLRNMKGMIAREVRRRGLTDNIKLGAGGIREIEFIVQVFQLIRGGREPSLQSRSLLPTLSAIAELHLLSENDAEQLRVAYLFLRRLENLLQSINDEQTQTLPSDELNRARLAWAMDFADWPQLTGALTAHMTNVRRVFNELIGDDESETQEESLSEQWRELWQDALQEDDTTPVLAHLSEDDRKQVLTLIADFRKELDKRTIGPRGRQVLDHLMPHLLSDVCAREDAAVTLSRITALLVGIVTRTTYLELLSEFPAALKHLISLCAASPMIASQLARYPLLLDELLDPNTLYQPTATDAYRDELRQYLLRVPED
T1 sequence (P30870 609-946 partner): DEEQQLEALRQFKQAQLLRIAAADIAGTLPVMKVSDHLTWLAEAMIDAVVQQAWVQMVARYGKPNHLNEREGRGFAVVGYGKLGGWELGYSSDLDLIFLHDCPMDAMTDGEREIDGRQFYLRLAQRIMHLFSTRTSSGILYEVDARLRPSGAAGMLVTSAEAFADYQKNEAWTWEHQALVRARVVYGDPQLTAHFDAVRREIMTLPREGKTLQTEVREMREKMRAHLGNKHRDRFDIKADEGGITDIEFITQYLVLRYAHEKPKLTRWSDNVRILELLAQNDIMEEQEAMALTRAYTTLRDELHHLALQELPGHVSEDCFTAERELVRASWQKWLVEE
In words: initial rate of GS adenylylation, […] incorporation from [alpha-32P]ATP. The format is biochemical.

The structures appear in SMILES notation.

In the case of `NC(=O)CC[C@H](N)C(=O)O` [glutamine], the concentration giving a half-maximal response (EC50) is around 7 mM.

The values are drawn from PMC2651632 (Biochemistry, 2008).
